Measured values as given in US20130344174A1, “Bioactive Fractions and Compounds from Polygonum genus, their Use in Anti-diarrhea and the Method of Preparation” (HONG KONG BAPTIST UNIVERSITY, priority 2012, published 2013).

Experiments:
Type in all cases: in vivo, ICR mice
[1] = tested on: castor oil-induced diarrhea in mice; experiment: Castor oil-induced diarrhea in mice; conditions: castor oil model, FIG. 6; for inhibitory effect on diarrhea (stools rate, stools grade, diarrhea index): oral, corilagin 30 and 60 mg/kg, ellagic acid 15 and 30 mg/kg
Procedure: ICR mice weighing 18-22 g were purchased from the Laboratory Animal Services Center, The Chinese University of Hong Kong. The animals were fed with a rodent standard diet with free access to water, and were kept in rooms maintained at 22±1° C. with a 12 h light/dark cycle following international recommendations. All experimental protocols were approved by The Animal Ethics Committees of Hong Kong Baptist University, in accordance with “Institutional Guidelines and Animal Ordinance” (Department of Health, Hong Kong Special Administrative Region). The castor oil-induced diarrhea model, as previously described by Zhou, et al in Zhou [NT]; Hu Zhihua; Wang […]; et al (Institute of Chinese Materia Medica, China Pharmaceutical University, Nanjing); An Inquiry into Preparing Diarrhea Model of Mice and Application of Diarrhea Index[J]; Chinese Traditional and Herbal Drugs; 1994-04, was used in the present study. In brief, extracts, fractions or major components of P. chinense, and loperamide were administered orally for 5 consecutive days. On day 5, each animal was kept individually in a cage, the floor of which was lined with blotting paper, and the paper was changed every hour. 30 min after the last treatment, diarrhea was induced by oral administration of castor oil ([…]). Number of total fecal pellets and wet faeces were counted in 4 h after the administration of castor oil. The diameter of wet faeces was measured and scored in order to evaluate stool consistency as follows: 1-the diameter of wet […] than 1.0 cm; 2-the diameter of wet […] between 1.0 and 2.0 cm; 3-the diameter of wet […] between 2.0 and 3.0 cm; 4- the diameter of wet […] more than 3.0 cm. The stool rate (SR) was calculated through comparing of the number of wet faeces and total faeces, and stool grade (SG) was evaluated according to the formula: [formula] where Nwet is the number of wet faeces; N<1, N1-2, N2-3 and N>3 are the number of wet faeces whose diameter are less than 1.0 cm, between 1.0 and 2.0 cm, between 2.0 and 3.0 cm, and more than 3.0 cm, respectively. Finally, the stool severity was evaluated by the in vivo diarrheal index (DI) and expressed as follows according to the method of Zhou, et al. DI=SR×SG

[2] = tested on: intestinal fluid secretion evoked by MgSO4 in mice; experiment: Antienteropooling assay (MgSO4-evoked intestinal fluid accumulation); conditions: 5 days, compared to control group, FIG. 7
Procedure: ICR mice weighing 18-22 g were purchased from the Laboratory Animal Services Center, The Chinese University of Hong Kong. The animals were fed with a rodent standard diet with free access to water, and were kept in rooms maintained at 22±1° C. with a 12 h light/dark cycle following international recommendations. All experimental protocols were approved by The Animal Ethics Committees of Hong Kong Baptist University, in accordance with “Institutional Guidelines and Animal Ordinance” (Department of Health, Hong Kong Special Administrative Region). The experiment was conducted as previously described with a litter revision. Animals will be randomly divided into six groups. Vehicle control group received 0.5% CMC suspension (10 ml/kg, p.o.), the positive control group was administered loperamide at the dose of 2 mg/kg orally; the test groups were orally administered major principles ellagic acid at the doses of 15 and 30 mg/kg, and corilagin at the doses of 30 and 60 mg/kg, respectively. The whole treatment lasted for 5 consecutive days. Before the last treatment, the mice of all groups were fasted overnight. After one hour of the last treatment on day 5, all groups were given the diarrhea reagent (0.5 ml/mouse of a 20% aq. MgSO4, orally). They were killed 30 min later and the small intestines were collected and weighed to find out the accumulation of intestinal fluid secretion evoked by MgSO4.

[3] = tested on: intestinal transit of charcoal meal in mice; experiment: Gastrointestinal transit test (charcoal meal); conditions: 5 days, FIG. 7
Procedure: ICR mice weighing 18-22 g were purchased from the Laboratory Animal Services Center, The Chinese University of Hong Kong. The animals were fed with a rodent standard diet with free access to water, and were kept in rooms maintained at 22±1° C. with a 12 h light/dark cycle following international recommendations. All experimental protocols were approved by The Animal Ethics Committees of Hong Kong Baptist University, in accordance with “Institutional Guidelines and Animal Ordinance” (Department of Health, Hong Kong Special Administrative Region). The experiment was conducted based on methods known in the art with a litter revision. Animals will be randomly divided into six groups. Vehicle control group received 0.5% CMC suspension (10 ml/kg, p.o.), the positive control group was administered loperamide at the dose of 2 mg/kg orally; the test groups were orally administered major principles ellagic acid at the doses of 15 and 30 mg/kg, and corilagin at the doses of 30 and 60 mg/kg, respectively. The whole treatment lasted for 5 consecutive days. Before the last treatment, the mice of all groups were fasted overnight. Five minutes later of the last treatment on day 5, 0.5 ml of a 3% suspension of deactivated charcoal in 0.5% aqueous Sodium Carboxymethyl Cellulose was administered orally to each mouse. All the mice were killed by cervical […] 30 min later and the distance travelled by the charcoal plug from pylorus to caecum was determined and expressed as a percentage of the total length of the small intestine.

[4] = tested on: magnesium sulphate-induced diarrhea in mice; experiment: Magnesium sulphate-induced diarrhea in mice; conditions: magnesium sulfate model, FIG. 6; for inhibitory effect on diarrhea (stools rate, stools grade, diarrhea index): oral, corilagin 30 and 60 mg/kg, ellagic acid 15 and 30 mg/kg
Procedure: ICR mice weighing 18-22 g were purchased from the Laboratory Animal Services Center, The Chinese University of Hong Kong. The animals were fed with a rodent standard diet with free access to water, and were kept in rooms maintained at 22±1° C. with a 12 h light/dark cycle following international recommendations. All experimental protocols were approved by The Animal Ethics Committees of Hong Kong Baptist University, in accordance with “Institutional Guidelines and Animal Ordinance” (Department of Health, Hong Kong Special Administrative Region). A protocol for castor oil-induced diarrhea was followed. In brief, diarrhea was induced by orally administration of magnesium sulphate at the dose of 3 g/kg to the animals 30 min after pretreatment with extracts, fractions or major components of P. chinense, and loperamide. All the administrations are carried out through oral route. Stool rate (SR), stool grade (SG) and diarrheal index (DI) were all evaluated.

[5] = 30 mg/kg oral vs loperamide 2 mg/kg
[6] = 60 mg/kg oral vs loperamide 2 mg/kg

Structure (SMILES): O=c1oc2c(O)c(O)cc3c(=O)oc4c(O)c(O)cc1c4c23 [ellagic acid]
- anti-diarrheal activity compared to loperamide [1, 5]: comparable anti-diarrheal activities as loperamide
- inhibitory effect on diarrhea (stools rate, stools grade, diarrhea index) [1]: significantly inhibitory effects
- intestinal fluid volume (pylorus to caecum) ([2]; 15 mg/kg oral): significantly reduced
- intestinal fluid volume (pylorus to caecum) ([2]; 30 mg/kg oral): significantly reduced
- intestinal transit of charcoal meal ([3]; 30 mg/kg oral): significantly delay
- anti-diarrheal activity compared to loperamide [4, 5]: comparable anti-diarrheal activities as loperamide
- inhibitory effect on diarrhea (stools rate, stools grade, diarrhea index) [4]: significantly inhibitory effects

Structure (SMILES): O=C(O[C@@H]1O[C@@H]2COC(=O)c3cc(O)c(O)c(O)c3-c3c(cc(O)c(O)c3O)C(=O)O[C@H]([C@H]1O)[C@@H]2O)c1cc(O)c(O)c(O)c1 [corilagin]
- anti-diarrheal activity compared to loperamide [1, 6]: comparable anti-diarrheal activities as loperamide
- inhibitory effect on diarrhea (stools rate, stools grade, diarrhea index) [1]: significantly inhibitory effects
- intestinal fluid volume (pylorus to caecum) ([2]; 30 mg/kg oral): significantly reduced
- intestinal fluid volume (pylorus to caecum) ([2]; 60 mg/kg oral): significantly reduced
- intestinal transit of charcoal meal ([3]; 15 mg/kg oral): significantly delay
- intestinal transit of charcoal meal ([3]; 30 mg/kg oral): significantly delay
- anti-diarrheal activity compared to loperamide [4, 6]: comparable anti-diarrheal activities as loperamide
- inhibitory effect on diarrhea (stools rate, stools grade, diarrhea index) [4]: significantly inhibitory effects
